Key:
[1] = test system: PI3K; test: Western blot of p-PI3K/PI3K in colonic mucosa; type: in vivo, FVB mice
Source text: (§1) Each lane contained colonic mucosa collected from two individual mice that were pooled for immunoblot analysis (n=6). Data are representative of two independent experiments. Band intensity was normalized to Lamin B1 (nuclear fraction) or β-actin (whole tissue lysate) and measured by Quantity One 1-D Analysis Software (Bio-Rad). Data are shown as the mean±SE. Multiple comparisons with Hochberg method were employed to control the False Discovery Rate. Different superscript letters in the bar charts indicate significant differences (p<0.05) by one-way analysis of variance (ANOVA) with Tukey's test.
(§2) Western blot analyses: The nuclear and cytoplasmic fractions were prepared using the Nuclear Extraction Kit (Abeam) according to the manufacturer's instructions and subjected to Western blot analysis. Protein concentrations were determined using the BCA method. Briefly, equal amount of proteins (50 μg) were resolved over 4-12% SDS-polyacrylamide gel electrophoresis and transferred to nitrocellulose membranes. […] Band intensity was normalized to Lamin B1 (nuclear fraction) and measured by Quantity One 1-D Analysis Software (Bio-Rad, Hercules, Calif., USA).

[2] = test system: β-catenin; test: Western blot of nuclear β-catenin in colonic mucosa (Wnt signaling); type: in vivo, FVB mice; conditions: colonic mucosa nuclear fraction, p<0.03
Source text: as §1, §2

[3] = test system: colonic tumors; test: Colonic tumorigenesis in HFD-fed, AOM-treated FVB mice; type: in vivo
Source text: Animals, diet and dosage information: The animal protocol was approved by the Institutional Animal Care and Use Committee of Tufts University (42015-155). Male FVB mice (4 weeks old) were obtained from the Jackson Laboratory (Bar Harbor, Me., USA), and were given free access to food (AIN-93G) and water for one week. The high-fat diet (HFD, D12450B) and low-fat diet (LFD, D12492) contained 60% and 10% of their calories as lard, respectively (Research Diets, diet details: Supplementary Tables 1, 2). […] One week after the sixth AOM injection, mice were randomized to receive 1 of 5 experimental diets: 1) LFD control, 2) […], 3) HFD containing 0.2% CUR (wt %), […], as pyridoxine HO), and 5) HFD containing both agents […]. There were 21 mice in each group. Body composition was determined by Echo-900 MRI (Houston, Tex., USA) at 21 weeks after arrival. All mice were sacrificed by isoflurane asphyxiation at 22 weeks after arrival. The liver and spleen were collected and weighed.
The dose of CUR (0.2 wt %) used in this study is equivalent to approximately 1 g/day for human dietary intake in a 60 kg adult based on equivalent surface area dosage conversion method^(30). The dose of B6 used is at 4-times the basal requirement (supplemented level) for mice. […] The colons were excised, opened longitudinally, rinsed with ice cold PBS containing protease and phosphatase inhibitors (pH 7.4) and carefully inspected under a dissection microscope. The number and size of tumors in the colons were recorded. The sizes of tumors were determined by the following formula: tumor volume (mm^3)=L×W×[(L+W)/2], where L is the length and W is the width of the tumors. Tumors and one 2-3 mm length piece of mid-colon from each mouse were fixed in 10% buffered formalin (pH 7.4) for 24 h for further histopathologic and immunohistochemical (IHC) analysis. The opened colon, spread out on a glass plate sitting atop crushed ice, was then gently scraped using glass microscope slides and the mucosa thus obtained was stored at −80° C. for future analyses. The pathology of the colonic tumors was characterized by a rodent histopathologist at the Harvard Rodent Histopathology Core (Boston, Mass., USA) who was blinded to the diet groups, and the tumors were graded as either non-neoplastic, adenomas or invasive cancers. The tumor data reported below includes only those confirmed to be either adenomas or cancers.
Statistical analyses: Data are presented as means±standard error (SE) for the indicated number of independently performed experiments. All statistical analyses were performed using SAS Version 9.3 (SAS Institute, Cary, N.C., USA). […] The tumor incidence was statistically calculated using the chi-square test. […]

[4] = test system: IL-6; test: Plasma IL-6 by V-PLEX Proinflammatory Panel 1 (mouse) Kit; type: in vivo, FVB mice; conditions: vs obese control; combination p=0.07
Source text: (§3) Frozen fecal samples obtained in the colon upon euthanasia and then measured by Mouse S100A8/S100A9 Heterodimer DuoSet ELISA according to manufacturer's instructions (R&D Systems, Minneapolis, Minn.) and normalized by protein concentrations. Data are shown as the mean±SE, Different superscript letters in the bar charts indicate significant differences (p<0.05) by one-way analysis of variance (ANOVA) with Tukey's test.
(§4) Determination of pro-inflammatory cytokines in plasma and calprotectin in feces: Plasma samples were then used for determination IL-1β, IL-6, and TNT-α concentrations by V-PLEX Proinflammatory Panel 1 (mouse) Kit on a chemiluminescence platform (MesoScale Discovery (MSD), Rockville, Md., USA) according to the manufacturer's instructions. For fecal calprotectin measures, frozen fecal samples obtained in the colon upon euthanasia were lysed in ice-cold PBS containing 1% BSA, 0.05% Tween20 and protease inhibitor. Protein concentrations were determined using the BCA method. Fecal calprotectin levels were measured by Mouse S100A8/S100A9 Heterodimer DuoSet ELISA according to manufacturer's instructions (R&D Systems, Minneapolis, Minn.) and normalized by protein concentrations.

[5] = test system: calprotectin; test: Fecal calprotectin by Mouse S100A8/S100A9 Heterodimer DuoSet ELISA; type: in vivo, FVB mice; conditions: vs obese control
Source text: as §3, §4

With `Cc1ncc(CO)c(CO)c1O.Cl` [B6, pyridoxine hydrochloride] as the molecule, how does the “Suppression of PI3K activation (in words)” value [1] read?
Its value is “did not cause a significant suppression”.

What about the “Level of nuclear β-catenin in comparison to the obese control (in words)” value [2] of the same molecule?
Its value is “reduced level of nuclear β-catenin”.

And the Tumor incidence ([3]; HFD-fed, AOM-treated FVB mice, agent in diet)?
Its Tumor incidence is 59%.

What about the “Tumor multiplicity (Tumors per mouse)” value ([3]; HFD-fed, AOM-treated FVB mice, agent in diet (CUR 0.2% w/w, B6 24 mg/kg), mean ± SE) of the same molecule?
Its value is 0.95 ± 0.22^ab.

What about the “Tumor burden (Total volume of tumors per mouse, mm^3)” value ([3]; HFD-fed, AOM-treated FVB mice, agent in diet, mean ± SE) of the same molecule?
Its value is 17.19 ± 7.38^ab mm^3.

What about the “Suppression of colorectal tumorigenesis (in words)” value ([3]; vs HFD obese control) of the same molecule?
Its value is “neither CUR nor B6 alone was sufficient to suppress colorectal tumorigenesis”.

And the “Plasma IL-6 level (in words)” value [4]?
Its value is “non-significant reduction”.

And the “Suppression of fecal calprotectin (in words)” value [5]?
The value was “did not cause a significant suppression”.
